The source of these data is EP4420684A1, “DNA TOXIC DIMER COMPOUND AND CONJUGATE THEREOF” (Systimmune, Inc., priority 2022, dated 2023).

One assay concerns SK-BR-3 tumor cells. Description: In vitro activity test (MTS, 5 days), growth inhibition of SK-BR-3 cells. In kind it is cell-based. The following applies: Homo sapiens, 120 h. As to the method:
• Cells: derived from the Cell Bank of the Chinese Academy of Sciences; • Tumor cell culture medium: Gibco™; • Fetal Bovine Serum (FBS): BIOWEST™;
• Growth medium (with 10% FBS, Penicillin/streptomycin (100 U/mL); • Assay medium (with 1% FBS, Penicillin/streptomycin (100 U/mL);
The biosafety cabinet was turned on for UV light irradiation 30 min in advance, and subsequently ventilated for 3 minutes. The growth medium, assay medium, D-PBS and trypsin were preheated in a 37°C thermostatic water bath, after which the surface was sterilized with alcohol and placed in the biosafety cabinet. Cells with a confluence of ~80% (logarithmic growth phase) were selected and placed in a biosafety cabinet, old medium was aspirated off, rinsed with D-PBS, aspirated and discarded, digested with trypsin for 2-3 minutes, after which growth medium was added to terminate the trypsin, and centrifuged at 500 × g for 5 minutes. The centrifugation supernatant was aspirated off, and the cells were mixed with 4 mL of assay medium, and 100 uL of the cells were taken for counting (of which 50 uL of cytosol was taken out, and 50 uL of 0.4% cell solution was added to 50 µL of 0.4% Trypan Blue Stain and mix, count after mixing). Spread the plate according to the previously set cell number, 80 uL/well in 96-well plate, wells E11, F11, G11 only received 80 uL of detection medium, the wells on the edge received 200 uL of DPBS to seal the edge. After the cells are completely attached to the wall (usually at least 4 hours), the test samples were configured and diluted: 1.0 mL of 2.5 µM (5 ×Top Dose) test samples were configured with the assay medium and dispensed into the first column of the V-type 96-well plate, with 200 µL in each well; 180 µL of assay medium was added to the second through eighth columns, and 30 µL was added to the second column from the first column, and mixed up and down with a row gun for […]. The test medium was mixed up and down 10 times with a row gun, discard the gun tip, and the remaining test concentration points were operated sequentially to perform 7-fold gradient concentration dilution. […]
The MTS reagent was removed from the test samples after 5 days of action, thawed at room temperature and protected from light, vortexed and mixed thoroughly, and then 20 µL of Cell Titer One Solution Reagen MTS reagent was added along the side wall of the wells for every 100 µL of cell culture volume in a biosafety cabinet. […] After the end of the reaction, took out the 96-well plate, placed in the enzyme labeling instrument to detect the OD490 nm absorbance value, and performed the data recording, organization and storage.

The subject of another assay is N87 tumor cells. In words: In vitro activity test (MTS, 5 days), growth inhibition of N87 cells. In kind it is cell-based. The note with it: 120 h.

Method for N87 tumor cells: The biosafety cabinet was turned on for UV light irradiation 30 min in advance, and subsequently ventilated for 3 minutes. The growth medium, assay medium, D-PBS and trypsin were preheated in a 37°C thermostatic water bath, after which the surface was sterilized with alcohol and placed in the biosafety cabinet. Cells with a confluence of ~80% (logarithmic growth phase) were selected and placed in a biosafety cabinet, old medium was aspirated off, rinsed with D-PBS, aspirated and discarded, digested with trypsin for 2-3 minutes, after which growth medium was added to terminate the trypsin, and centrifuged at 500 × g for 5 minutes. The centrifugation supernatant was aspirated off, and the cells were mixed with 4 mL of assay medium, and 100 uL of the cells were taken for counting (of which 50 uL of cytosol was taken out, and 50 uL of 0.4% cell solution was added to 50 µL of 0.4% Trypan Blue Stain and mix, count after mixing). Spread the plate according to the previously set cell number, 80 uL/well in 96-well plate, wells E11, F11, G11 only received 80 uL of detection medium, the wells on the edge received 200 uL of DPBS to seal the edge. […]

`COc1ccc(C2=CN3C(=O)c4cc(OC)c(OCC56CC(C(=O)N7C[C@@H](CCl)c8c7cc(O)c7cccc(C)c87)(C5)C6)cc4N=C[C@@H]3C2)cc1` [Compound A]: the 50% inhibitory concentration (IC50) with SK-BR-3 tumor cells stood at 0.52 nM.

Turning to `COc1cc2c(cc1OCC13CC(C(=O)N4C[C@@H](CCl)c5c4cc(O)c4cccc(C)c54)(C1)C3)N=C[C@@H]1CC(c3ccc(NC(=O)CO)cc3)=CN1C2=O` [Compound B1], the concentration for half-maximal inhibition (IC50) in the assay on SK-BR-3 tumor cells amounted to 4.23 nM; with N87 tumor cells, 5.03 nM.

Take `COc1cc2c(cc1OCCCCC(=O)N1C[C@@H](CCl)c3c1cc(O)c1cccc(C)c31)N=C[C@@H]1CC(c3ccc(NC(=O)CO)cc3)=CN1C2=O` [Compound C1]: the IC50 came out at 8.67 nM in the assay with SK-BR-3 tumor cells and 9.68 nM with N87 tumor cells.

In the case of `COc1cc2c(cc1OCCCCC(=O)N1C[C@@H](CCl)c3c1cc(O)c1cccc(C)c31)N=C[C@@H]1Cc3ccc(NC(=O)CO)cc3N1C2=O` [Compound D1], the concentration for half-maximal inhibition (IC50) came out at 10.3 nM in the assay on SK-BR-3 tumor cells and 12.3 nM with N87 tumor cells.

In general, IC50 refers to the midpoint of a concentration-inhibition curve. Read a low IC50 as inhibition by little substance.
